Like-named read-outs stand apart in the source and are kept apart here.
How the values were obtained:
platelet aggregation [1] = assay: VerifyNow Aspirin Assay (ARU), turbidimetric optical detection in whole blood; type: in vivo, human; conditions: Visit 2 trough
Method: The VerifyNow® is a turbidimetric based optical detection system that measures platelet aggregation in the whole blood and reports the optical signals as aspirin reaction units (“ARU”). The percent change in ARU over 24 hours (“ARU24”) is calculated from 1 hour post dose using the following formulas: ARU12(%)=(([…]16(%)=(([…]1)*100 and ARU24(%)=(([…]1)*100. […] For this study the trough level data are from the following timepoints: (1) for 81 mg-the data at Visit 2; […]

endothelial function = assay: Reactive hyperemia index (ENDOPAT pulsatile arterial tonometry); type: in vivo, human; conditions: for RHI < 1.67 (%): share of subjects
Method: Endothelial function was assessed using the ENDOPAT system ([…] Medical, Israel), a pulsatile arterial tonometry-based diagnostic device, at Visit 2, Visit 3, Visit 5, and Visit 6 predose. The reactive hyperemia index (“RHI”), a measure of endothelial function, and the augmentation index (“AI”), a measure of arterial stiffness, were determined. Endothelial dysfunction is defined as RHI<1.67. Normal arterial stiffness is defined as an AI -30% to -10%, increased arterial stiffness as an AI>-10% to 10%, and abnormal arterial stiffness as an AI>10%. The RHI measures vessel pliability which is a surrogate for nitric oxide production. The production of nitric oxide inhibits platelet aggregation. Thus, determining nitric oxide production following Durlaza® dosing is important to understanding its affect on platelet inhibition.

serum TxB2 = conditions: 75 mg IR ASA; Würtz et al.; cited from earlier work
platelet aggregation [2] = conditions: 75 mg IR ASA; Würtz et al.; cited from earlier work
[3] = Single dose ASA pharmacokinetics, IR ASA vs. ER ASA; type: in vivo, human; conditions: for AUC(0-t) / Cmax / Tmax: human, serum, oral, ASA
Method: (§1) Healthy adults were randomized to receive single doses of extended release ASA (“ER ASA”) at a dosage of 20 mg, 40 mg, 81 mg, 162.5 mg ER ASA (Durlaza®; New Haven Pharmaceuticals, Inc., North Haven, Conn.), or 325 mg, or immediate release ASA (“IR ASA”; aspirin powder USP; Letco Medical, Decatur, Ala.) at a dosage of 5 mg, 10 mg, 20 mg, 40 mg or 81 mg. […] For pharmacodynamic assessments, serum 11-dehydro-thromboxane (“TxB2”, a stable metabolite of thromboxane A2) levels were assessed using a validated enzyme immunoassay kit in serial blood samples collected 1 hour before dosing and at 0.5, 1, 2, 4, 8, 16, and 24 hours after drug administration.

[4] = test system: 2, 3-dinor-6-keto-PGF1α (prostacyclin); assay: Urinary 2,3-dinor-6-keto-PGF1α (prostacyclin) excretion by GC/MS, basal and bradykinin-stimulated (Example 3); type: in vivo, human
Method: Each subject was prohibited from taking any aspirin for two weeks prior to being administered the randomly chosen drug daily for 1 week followed by a urine collection 24 hours after dosing. This protocol was repeated two additional times. […] Statistical analysis was done using Wilcoxon rank sum test for continuous variables and the Pearson test for categorical variables.

platelet function = assay: PlateletWorks platelet function at trough level; type: in vivo, human; conditions: Visit 2 trough
Method: The platelet function and aggregation measures at trough level were compared between the 81 mg immediate release ASA, 162.5 mg ER ASA (Durlaza®) and 325 mg ER ASA groups. For this study the trough level data are from the following timepoints: (1) for 81 mg—the data at Visit 2; (2) for 162.5 mg ER ASA (Durlaza®)—the data at Visit 3 pre-dose; and (3) for 325 mg ER ASA—the data at Visit 6 pre-dose.
This is unknown for patients with Diabetes and CVD or multiple risk factors.

[5] = test system: serum 11-dehydro-thromboxane (TxB2) production; assay: Single dose inhibition of serum TxB2 production (enzyme immunoassay); type: in vivo, human; conditions: highest doses: ER ASA 81 mg, 162.5 mg (Durlaza), 325 mg; IR ASA 40 mg and 81 mg
Method: as §1

[6] = test system: platelet aggregation / clot strength; assay: Plateletmapping assay (TEG-6S analyzer); type: in vivo, human; conditions: Visit 2 trough
Method: The […]® assay ([…] is a registered trademark of Haemoscope Corp.) was conducted using a TEG®-6S analyzer (TEG is a registered trademark of Haemoscope Corp.) and results included parameters: […] For summary purposes the change in each parameter over 24 hours is calculated by subtracting the result at 24 hours from the result at 1 hour (i.e., absolute difference). […] For this study the trough level data are from the following timepoints: (1) for 81 mg-the data at Visit 2; […]

[7] = 81 mg IR, subjects compared with Visit 6 (sub-study)
[8] = HPT Group, Visit 5, 81 mg IR ASA
[9] = single dose 5 mg, healthy adults
[10] = single dose 10 mg, healthy adults
[11] = single dose 20 mg, healthy adults
[12] = single dose 40 mg, healthy adults
[13] = single dose 81 mg, healthy adults

In the case of `CC(=O)Oc1ccccc1C(=O)O` [IR ASA, acetylsalicylic acid], the “VerifyNow Aspirin Assay (ARU)” value (platelet aggregation [1]; 81 mg IR QD, main study) was 477 ± 72 ARU, the “VerifyNow Aspirin Assay (ARU)” value (platelet aggregation [1]; [7]) was 475 ± 102 ARU and the “Reactive Hyperemia Index, Maximum” value (endothelial function; [8]) was 2.27. The “Reactive Hyperemia Index, Mean” value (endothelial function; [8]) was 1.74, the “Reactive Hyperemia Index, Minimum” value (endothelial function; [8]) was 1.23 and the “Reactive Hyperemia Index, Mean” value (endothelial function; HPT Group, Visit 5, 81 mg IR ASA, listed as IR aspirin) was 1.7±0.5. For the same compound, the “RHI < 1.67 (%)” value (endothelial function; [8]) was “(44) %”, the “Reactive Hyperemia Index, Maximum” value (endothelial function; Visit 2, 81 mg IR ASA) was 3.01 and the “Reactive Hyperemia Index, Mean” value (endothelial function; Visit 2, 81 mg IR ASA) was 1.94. The “Reactive Hyperemia Index, Minimum” value (endothelial function; Visit 2, 81 mg IR ASA) was 0.58, the “Reactive Hyperemia Index, Mean” value (endothelial function; Visit 2, 81 mg IR ASA, listed as IR aspirin) was 1.9±0.5 and the “RHI < 1.67 (%)” value (endothelial function; Visit 2, 81 mg IR ASA) was “(27.5) %”. The “serum TxB2 levels 24 hours after administration” value (serum TxB2) was “significant increase”, the “AA induced and collagen induced platelet aggregation 24 hours after administration” value (platelet aggregation [2]) was “significant increase” and the “time required to reach the maximum concentration of ASA” value ([3]; all doses, single dose, healthy adults) was 1 to 2 h. The AUC(0-t) ([3]; 5 mg, single dose 5 mg, healthy adults, read-out: AUClast) was 26.8 ng·h/mL, the AUC(0-t) ([3]; 10 mg, single dose 10 mg, healthy adults, read-out: AUC0-8) was 136 ng·h/mL and the AUC(0-t) ([3]; 10 mg, single dose 10 mg, healthy adults, read-out: AUClast) was 74.9 ng·h/mL. For the same compound, the AUC(0-t) ([3]; 20 mg, single dose 20 mg, healthy adults, read-out: AUC0-8) was 366 ng·h/mL, the AUC(0-t) ([3]; 20 mg, single dose 20 mg, healthy adults, read-out: AUClast) was 148 ng·h/mL and the AUC(0-t) ([3]; 40 mg, single dose 40 mg, healthy adults, read-out: AUClast) was 384 ng·h/mL. It also gave an AUC(0-t) ([3]; 81 mg, single dose 81 mg, healthy adults, read-out: AUClast) of 865 ng·h/mL, a Cmax [3, 9] of 25.1 ng/mL and a Tmax [3, 9] of 1.2 h. The Cmax [3, 10] was 63.9 ng/mL, the Tmax [3, 10] was 1.5 h and the Cmax [3, 11] was 123 ng/mL. It also gave a Tmax [3, 11] of 1.6 h, a Cmax [3, 12] of 228 ng/mL and a Tmax [3, 12] of 1.4 h. For the same compound, the Cmax [3, 13] was 504 ng/mL, the Tmax [3, 13] was 1.4 h and the “time period over which serum concentrations of ASA were maintained” value ([3]; single dose, 8 hours = sampling interval evaluated) was 6 h. The “Bradykinin-stimulated prostacyclin levels over placebo” value ([4]; 81 mg) was “significantly reduced”, the “Basal prostacyclin levels over placebo” value ([4]; 81 mg daily for 1 week) was “significantly reduced” and the “Bradykinin-stimulated prostacyclin levels over placebo” value ([4]; 162.5 mg) was “significantly reduced”. For the same compound, the “Basal prostacyclin levels over placebo” value ([4]; 162.5 mg daily for 1 week) was “significantly reduced”, the “PlateletWorks (% Agg) AA” value (platelet function; 81 mg IR QD, main study) was 44 ± 19 % Agg and the “PlateletWorks (% Agg) ADP” value (platelet function; 81 mg IR QD, main study) was 83 ± 15 % Agg. For the same compound, the “PlateletWorks (% Agg) Collagen” value (platelet function; 81 mg IR QD, main study) was 47 ± 17 % Agg, the “PlateletWorks (% Agg) AA” value (platelet function; [7]) was 44 ± 16 % Agg and the “PlateletWorks (% Agg) ADP” value (platelet function; [7]) was 84 ± 10 % Agg. For the same compound, the “PlateletWorks (% Agg) Collagen” value (platelet function; [7]) was 44 ± 12 % Agg, the “single dose inhibition of TxB2 production” value [5] was “maintained during a 24-hour period” and the “TEG PlateletMapping AA Aggregation” value ([6]; 81 mg IR QD, main study) was 48 ± 29. For the same compound, the “TEG PlateletMapping ADP Aggregation” value ([6]; 81 mg IR QD, main study) was 74 ± 25, the “TEG PlateletMapping MA (clot strength, mm)” value ([6]; 81 mg IR QD, main study) was 65 ± 5 mm and the “TEG PlateletMapping MA-AA (mm)” value ([6]; 81 mg IR QD, main study) was 39 ± 15 mm. For the same compound, the “TEG PlateletMapping MA-ADP (mm)” value ([6]; 81 mg IR QD, main study) was 50 ± 18 mm, the “TEG PlateletMapping MA-fibrin (mm)” value ([6]; 81 mg IR QD, main study) was 17 ± 11 mm and the “TEG PlateletMapping R (Clotting time, min)” value ([6]; 81 mg IR QD, main study) was 6.8 ± 1.5 min. For the same compound, the “TEG PlateletMapping AA Aggregation” value [6, 7] was 75 ± 17, the “TEG PlateletMapping ADP Aggregation” value [6, 7] was 73 ± 21 and the “TEG PlateletMapping MA (clot strength, mm)” value [6, 7] was 64 ± 3 mm. The “TEG PlateletMapping MA-AA (mm)” value [6, 7] was 54 ± 9 mm, the “TEG PlateletMapping MA-ADP (mm)” value [6, 7] was 52 ± 11 mm and the “TEG PlateletMapping MA-fibrin (mm)” value [6, 7] was 24 ± 12 mm. The “TEG PlateletMapping R (Clotting time, min)” value [6, 7] was 7.1 ± 0.7 min.

Reference: patent publication US20170112857A1, “Extended Release Aspirin” (New Haven Pharmaceuticals, Inc., priority 2015, published 2017)
